A short description of experiment [1]: DRUGMATRIX: Tumor Necrosis Factor (TNF), Non-Selective radioligand binding (ligand: [125I] TNF-alpha). The settings on record: u-937; Not Active = under 50% inhibition at 10 µM. In kind it is cell membranes, Membrane.
The nature of experiment [2]: DRUGMATRIX: ATPase, Na+/K+ enzyme inhibition (substrate: ATP). In kind it is tissue-based, Sus scrofa, Heart. The settings on record: Not Active = under 50% inhibition at 10 µM.
The target in experiment [3] is Delta-type opioid receptor (Homo sapiens, UniProt P41143). In kind it is cell membranes, HEK293, Membrane. The settings on record: hek293. Note: in other assays of this panel Not Active means under 50% inhibition at 10 µM.
Chain of Delta-type opioid receptor (P41143 whole entry): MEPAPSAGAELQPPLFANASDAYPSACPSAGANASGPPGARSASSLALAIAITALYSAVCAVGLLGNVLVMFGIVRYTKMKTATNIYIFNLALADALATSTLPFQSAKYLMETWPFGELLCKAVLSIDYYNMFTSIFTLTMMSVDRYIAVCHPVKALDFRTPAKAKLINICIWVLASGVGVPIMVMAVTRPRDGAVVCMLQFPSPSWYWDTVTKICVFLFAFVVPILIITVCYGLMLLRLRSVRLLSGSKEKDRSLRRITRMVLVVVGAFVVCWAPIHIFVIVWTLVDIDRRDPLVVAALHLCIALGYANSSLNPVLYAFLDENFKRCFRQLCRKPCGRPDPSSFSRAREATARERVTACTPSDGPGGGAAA
The next experiment deals with Adenosine receptor A2a (Homo sapiens, UniProt P29274). The experiment can be described thus: DRUGMATRIX: Adenosine A2A radioligand binding (ligand: […]). The settings on record: Not Active = under 50% inhibition at 10 µM. In kind it is cell membranes, HEK293, Membrane.
Chain of Adenosine receptor A2a (P29274 whole entry): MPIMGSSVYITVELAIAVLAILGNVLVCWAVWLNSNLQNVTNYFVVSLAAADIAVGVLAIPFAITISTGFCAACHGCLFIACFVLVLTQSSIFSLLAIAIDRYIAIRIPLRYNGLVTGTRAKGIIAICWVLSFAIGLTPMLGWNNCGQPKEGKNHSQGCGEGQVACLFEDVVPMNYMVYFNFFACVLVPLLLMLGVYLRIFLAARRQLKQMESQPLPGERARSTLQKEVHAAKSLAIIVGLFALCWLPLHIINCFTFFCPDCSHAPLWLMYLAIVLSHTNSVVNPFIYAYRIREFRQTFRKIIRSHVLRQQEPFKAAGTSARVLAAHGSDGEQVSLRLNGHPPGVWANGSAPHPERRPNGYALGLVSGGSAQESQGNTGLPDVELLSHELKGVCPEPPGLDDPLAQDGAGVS
The nature of experiment [4]: DRUGMATRIX: Calcium Channel Type L, Dihydropyridine radioligand binding (ligand: [3H] Nitrendipine). In kind it is cell membranes, Rattus norvegicus, Wistar, Cerebral cortex, Membrane. The settings on record: Not Active = under 50% inhibition at 10 µM.
Experiment [5] in a line: DRUGMATRIX: Calcium Channel Type L, Benzothiazepine radioligand binding (ligand: [3H] Diltiazem). In kind it is cell membranes, Rattus norvegicus, Wistar, Brain, Membrane. The settings on record: Not Active = under 50% inhibition at 10 µM.
Experiment [6] has as its target T1, Muscarinic acetylcholine receptor M4 (Homo sapiens, UniProt P08173). Note: in other assays of this panel Not Active means under 50% inhibition at 10 µM.
T1 sequence (P08173 whole entry): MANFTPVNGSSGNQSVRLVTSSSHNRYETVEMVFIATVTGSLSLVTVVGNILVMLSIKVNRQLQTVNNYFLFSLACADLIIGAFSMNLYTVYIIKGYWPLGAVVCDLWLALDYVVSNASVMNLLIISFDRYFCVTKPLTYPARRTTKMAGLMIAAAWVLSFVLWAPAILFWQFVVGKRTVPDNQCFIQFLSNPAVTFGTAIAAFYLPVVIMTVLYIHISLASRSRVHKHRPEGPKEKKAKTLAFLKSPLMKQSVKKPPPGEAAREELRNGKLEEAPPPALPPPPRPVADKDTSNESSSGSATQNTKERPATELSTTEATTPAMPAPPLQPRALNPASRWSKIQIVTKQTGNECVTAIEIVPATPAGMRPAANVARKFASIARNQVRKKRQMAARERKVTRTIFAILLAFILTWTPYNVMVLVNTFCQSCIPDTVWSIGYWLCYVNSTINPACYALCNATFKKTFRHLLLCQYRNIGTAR
In kind it is cell membranes, CHO-K1, Membrane. To be noted: cho-k1.

Broadly, the IC50 is the midpoint of a concentration-inhibition curve. Usually Ki stands for a dissociation constant, usually derived from enzyme kinetics or from competition with a known ligand. Consider `C#C[C@]1(O)CC[C@H]2[C@@H]3CCC4=Cc5oncc5C[C@]4(C)[C@H]3CC[C@@]21C` [DANAZOL], for which the IC50 result in experiment [1] is “Not Active”; in experiment [2], “Not Active”; in experiment [3], “Not Active”; on Adenosine receptor A2a (hek293) it was “Not Active”; in experiment [4] (read-out: IC50), 19.6 µM; in experiment [5] (read-out: IC50), 14.6 µM. Also, the half-inhibitory concentration (IC50) result in experiment [6] is “Not Active”. For the same compound, the inhibition constant Ki entry in experiment [1] was “Not Active”; in experiment [2] it was “Not Active”; in experiment [4] (read-out: Ki) it was 12.6 µM; in experiment [5] (read-out: Ki), 13 µM.
For the compound `CCN[C@@H](C)Cc1cccc(C(F)(F)F)c1` [DEXFENFLURAMINE], the IC50 result (in experiment [1]; in experiment [2]; in experiment [3]; on Adenosine receptor A2a (hek293); in experiment [4]; in experiment [5]) was “Not Active” throughout. For the same compound, the IC50 entry in experiment [6] is “Not Active”. Moreover, the inhibitory constant (Ki) result in experiment [1], in experiment [2], in experiment [4] and in experiment [5] was “Not Active” in each case.
Take `C[C@H](C(=O)O)c1cccc(C(=O)c2ccccc2)c1` [DEXKETOPROFEN]: the IC50 result (in experiment [1]; in experiment [2]; in experiment [3]; at Adenosine receptor A2a (hek293); in experiment [4]; in experiment [5]) was “Not Active” throughout. For the same compound, the IC50 entry in experiment [6] is reported as “Not Active”. For the same compound, the inhibitory constant (Ki) entry in experiment [1], in experiment [2], in experiment [4] and in experiment [5] was “Not Active” each time.
For `CN1C(=O)CN=C(c2ccccc2)c2cc(Cl)ccc21` [DIAZEPAM], the IC50 result (in experiment [1]; in experiment [2]; in experiment [3]; at Adenosine receptor A2a (hek293); in experiment [4]; in experiment [5]) was “Not Active” throughout. Further, the IC50 entry in experiment [6] is “Not Active”. Further, the Ki result in experiment [1], in experiment [2], in experiment [4] and in experiment [5] was “Not Active” in each case.
In the case of `CN1C[C@H](C(=O)N[C@]2(C)O[C@@]3(O)[C@@H]4CCCN4C(=O)[C@H](Cc4ccccc4)N3C2=O)C[C@@H]2c3cccc4[nH]cc(c34)C[C@H]21` [DIHYDROERGOTAMINE], the IC50 entry (in experiment [1]; in experiment [2]; in experiment [3]; on Adenosine receptor A2a (hek293); in experiment [4]; in experiment [5]) was “Not Active” in each case. Also, the IC50 entry in experiment [6] was “Not Active”. Also, the Ki result in experiment [1], in experiment [2], in experiment [4] and in experiment [5] was “Not Active” in each case.
With `Cc1c(N(C)CS(=O)(=O)[O-])c(=O)n(-c2ccccc2)n1C.[Na+]` [DIPYRONE SODIUM], the concentration for half-maximal inhibition (IC50) entry (in experiment [1]; in experiment [2]; in experiment [3]; at Adenosine receptor A2a (hek293); in experiment [4]; in experiment [5]) was “Not Active” in each case. The IC50 entry in experiment [6] is “Not Active”. For the same compound, the Ki entry in experiment [1], in experiment [2], in experiment [4] and in experiment [5] was “Not Active” in each case.
For the compound `CC(CCc1ccc(O)cc1)NCCc1ccc(O)c(O)c1` (stereo not drawn) [DOBUTAMINE], the IC50 entry (in experiment [1]; in experiment [2]; in experiment [3]; on Adenosine receptor A2a (hek293); in experiment [4]; in experiment [5]) was “Not Active” each time. In addition, the half-inhibitory concentration (IC50) entry in experiment [6] is given as “Not Active”. The Ki result in experiment [1], in experiment [2], in experiment [4] and in experiment [5] was “Not Active” each time.
`CCn1cc(C(=O)O)c(=O)c2cc(F)c(N3CCNCC3)nc21` [ENOXACIN]: the IC50 result (in experiment [1]; in experiment [2]; in experiment [3]; on Adenosine receptor A2a (hek293); in experiment [4]; in experiment [5]) was “Not Active” each time. The half-maximal inhibitory concentration (IC50) result in experiment [6] is on record as “Not Active”. Moreover, the inhibition constant Ki entry in experiment [1], in experiment [2], in experiment [4] and in experiment [5] was “Not Active” each time.
For the compound `CCC(=O)O[C@H]1[C@H](O[C@@H]2[C@@H](C)[C@H](O[C@H]3C[C@@](C)(OC)[C@@H](O)[C@H](C)O3)[C@@H](C)C(=O)O[C@H](CC)[C@@](C)(O)[C@H](O)[C@@H](C)C(=O)[C@H](C)C[C@@]2(C)O)O[C@H](C)C[C@@H]1N(C)C` [ERYTHROMYCIN PROPIONATE], the IC50 entry (in experiment [1]; in experiment [2]; in experiment [3]; at Adenosine receptor A2a (hek293); in experiment [4]; in experiment [5]) was “Not Active” in each case. For the same compound, the IC50 result in experiment [6] is reported as “Not Active”. Moreover, the Ki entry in experiment [1], in experiment [2], in experiment [4] and in experiment [5] was “Not Active” each time.
Turning to `C=C(CC)C(=O)c1ccc(OCC(=O)O)c(Cl)c1Cl` [ETHACRYNIC ACID], the IC50 entry (in experiment [1]; in experiment [2]; in experiment [3]; at Adenosine receptor A2a (hek293); in experiment [4]; in experiment [5]) was “Not Active” throughout. For the same compound, in experiment [6], the 50% inhibitory concentration (IC50) entry is “Not Active”. For the same compound, the Ki entry in experiment [1], in experiment [2], in experiment [4] and in experiment [5] was “Not Active” each time.
In the case of `C#C[C@]1(O)CC[C@H]2[C@@H]3CCc4cc(O)ccc4[C@H]3CC[C@@]21C` [ETHINYL ESTRADIOL], the IC50 entry is “Not Active” in experiment [1]; “Not Active” in experiment [2]; “Not Active” in experiment [3]; 20.9 µM at Adenosine receptor A2a (read-out: IC50); “Not Active” in experiment [4]; 15.4 µM in experiment [5] (read-out: IC50). The IC50 entry in experiment [6] is “Not Active”. In addition, the Ki result in experiment [1] is “Not Active”; in experiment [2] it was “Not Active”; at Adenosine receptor A2a (read-out: Ki) it was 11.8 µM; in experiment [4], “Not Active”; in experiment [5] (read-out: Ki), 13.7 µM.
Regarding `OCCO` [ETHYLENE GLYCOL], the IC50 result (in experiment [1]; in experiment [2]; in experiment [3]; on Adenosine receptor A2a (hek293); in experiment [4]; in experiment [5]) was “Not Active” in each case. The IC50 entry in experiment [6] is “Not Active”. For the same compound, the Ki entry in experiment [1], in experiment [2], in experiment [4] and in experiment [5] was “Not Active” in each case.
With `CC(=O)OCC(CCn1cnc2cnc(N)nc21)COC(C)=O` [FAMCICLOVIR], the IC50 entry (in experiment [1]; in experiment [2]; in experiment [3]; on Adenosine receptor A2a (hek293); in experiment [4]; in experiment [5]) was “Not Active” each time. Besides, in experiment [6], the IC50 result is recorded as “Not Active”. Besides, the Ki result in experiment [1], in experiment [2], in experiment [4] and in experiment [5] was “Not Active” each time.
As to `O=C(O)Cc1ccc(-c2ccccc2)cc1` [FELBINAC], the 50% inhibitory concentration (IC50) entry (in experiment [1]; in experiment [2]; in experiment [3]; at Adenosine receptor A2a (hek293); in experiment [4]; in experiment [5]) was “Not Active” throughout. In experiment [6], the IC50 result is “Not Active”. Moreover, the Ki entry in experiment [1], in experiment [2], in experiment [4] and in experiment [5] was “Not Active” throughout.
On to `CCOC(=O)C1=C(C)NC(C)=C(C(=O)OC)C1c1cccc(Cl)c1Cl` (stereo not drawn) [FELODIPINE], for which the IC50 result in experiment [1] is “Not Active”; in experiment [2], “Not Active”; in experiment [3], “Not Active”; on Adenosine receptor A2a (hek293), “Not Active”; in experiment [4] (read-out: IC50) it was 8.2e-05 µM; in experiment [5] (read-out: IC50), 0.023 µM. In experiment [6], the IC50 entry is recorded as “Not Active”. Moreover, the Ki result in experiment [1] was “Not Active”; in experiment [2] it was “Not Active”; in experiment [4] (read-out: Ki), 5.3e-05 µM; in experiment [5] (read-out: Ki), 0.02 µM.
Turning to `CC(C(=O)O)c1ccc(-c2ccccc2)c(F)c1` (stereo not drawn) [FLURBIPROFEN], the IC50 entry (in experiment [1]; in experiment [2]; in experiment [3]; on Adenosine receptor A2a (hek293); in experiment [4]; in experiment [5]) was “Not Active” in each case. Moreover, the IC50 entry in experiment [6] is “Not Active”. For the same compound, the Ki result in experiment [1], in experiment [2], in experiment [4] and in experiment [5] was “Not Active” in each case.
As for `Cc1cn[nH]c1` [FOMEPIZOLE], the IC50 entry (in experiment [1]; in experiment [2]; in experiment [3]; at Adenosine receptor A2a (hek293); in experiment [4]; in experiment [5]) was “Not Active” in each case. Besides, in experiment [6], the IC50 result was “Not Active”. For the same compound, the Ki entry in experiment [1], in experiment [2], in experiment [4] and in experiment [5] was “Not Active” in each case.

Values taken from ChEMBL document CHEMBL1909046, “DrugMatrix in vitro pharmacology data”.
